How the values were obtained:
EAE model of MS = assay: T cell encephalitogenicity in adoptive transfer after in vitro treatment of the cells; format: in vivo; set-up: dose or concentration left out as unconfirmed; conditions: cells activated 3 days, then transferred into naïve B10PL mice
Experimental: EAE Induction. Immunization: 8-10 week old B6/WT or SJL/WT mice were s.c. injected over four sites in the flank with 200 μg MOG 35-55 or […] (CS bio) in an emulsion with CFA (Difco). 200 ng pertussis toxin (List) per mouse in PBS was injected i.p. at the time of immunization and 48 h later. Adoptive transfer: Splenocytes were isolated from naïve 5-10-week-old Vα2.3/Vβ8.2 TCR transgenic mice and activated with 10 μg/ml of MBP Ac1-11 with or without rmIL-6 in 24-well plates at […] with irradiated B10.PL splenocytes (6×10^8 cells/well). After 72 hours, the cells were washed with PBS and 8×10^6 were injected i.p. into naïve B10.PL mice. Evaluation. The mice were evaluated daily for clinical signs of EAE. Mice were scored on scale of 0 to 6:0, no clinical disease; 1, limp/flaccid tail; 2, moderate hind limb weakness; 3. severe hind limb weakness; 4. complete hind limb paralysis; 5 quadriplegia or premoribund state; and 6, death.
DMSO was used as vehicle control. The cells were then adoptively transferred into naïve B10PL mice (disease incidence). Data are representative of multiple independent experiments.

[1] = system: CD25+FoxP3+ iTregs of CD4 T cells from MS patients; assay: iTreg development of CD4 T cells from MS patients (intracellular flow cytometry); format: cell-based, human
Experimental: FIGS. 14A-14M show representative data for LLL12b suppression of human Th17 development and promotion of Treg development in CD4 T-cells from MS patients. FIGS. 14A, 14E, 14H, and 14K each shown representative data obtained in PBMCs from 22 treatment-naïve MS patients that were activated with αhCD3 plus rhIL-6 for 3 days, in the presence of 0.125 μM or 0.25 μM of LLL12b. DMSO was used as a vehicle control. IL-17 in supernatant was determined by ELISA. FIGS. 14B-14C, 14F, 14I, and 14L each shown representative data obtained in PBMCs from 22 treatment-naïve MS patients that were activated with αhCD3/CD28 plus rhTGFβ. rhIL-2 and RA for 3 days, in the presence of 0.125 μM of LLL12b. DMSO was used as vehicle control. CD25+FoxP3+CD4+ iTregs were determined by intracellular flow cytometry. Cells were gated CD45RA+CD4+ cells. […] IL-17 in each group was compared with one-way ANOVA. […] FIG. 14G the calculated IL-17/Treg ratio of each patient in LLL12b group and DMSO group and compared with Wilcoxon matched-pairs signed rank test. […] FIG. 14J the calculated percent decrease of IL-17/Treg ratio in LLL12b group compared to DMSO group. […] FIG. 14M patient numbers in different ranges of calculated percent decrease of IL-17/Treg.
Meanwhile, we determined the extent to which LLL12b promotes the development of iTregs of CD4 T cells from MS patients (FIGS. 14B-14C, 14F, 14I, and 14L). PBMCs from 22 treatment-naïve MS patients were activated with αhCD3/CD28 for 3 days, in the presence of TGFβ, IL-2 and trans-retinoic acid (iTreg differentiating condition). After 72 h of culture under iTreg differentiating condition, the total number of CD25+FoxP3+ iTregs in the CD4+CD45RA+ population increased from 40% in control group to 59% in the group treated with LLL12b.

[2] = system: Teff cells from MS patients; assay: CFSE-based Treg-mediated suppression assay on Teff cells from MS patients; format: cell-based, human; conditions: 0.25 μM for 1-2 hrs; 3 treatment-naïve MS patients
Experimental: FIGS. 15A-15C show representative data for LLL12b enhancement of Treg-mediated suppression on Teff cells obtained from MS patients. PBMCs were obtained from three treatment-naïve MS patients and were activated with αhCD3/CD28 plus rhTGFβ, rhIL-2 and RA for 3 days to generate Tregs. Meanwhile, PBMCs from the same three MS patients were labeled with CFSE and cultured with 0.25 μM of LLL12b or DMSO for 1-2 hours. The LLL12b or DMSO treated CFSE-CD4 T cells were then mixed with Tregs generated from the same patient at different ratios and activated with αhCD3 for 5 days. Proliferation of Teff cells was determined by flow cytometric analysis of CFSE on CD4 T cells. Cells were gated on CD4+ cells.
LLL12b enhances Treg mediated suppression on Teff cells from MS patients. Since Teff cells from MS patients are resistant to Treg mediated suppression and IL-6/STAT3 signaling promotes the resistance of Teff in MS patient, we determined whether LLL12b may enhance the Treg-mediated suppression on Teff from MS patients using CFSE-based suppression assay. PBMCs from three treatment-naïve MS patients were labeled with CFSE and cultured with 0.25 μM of LLL12b or DMSO for 1-2 hrs. Then the CFSE-CD4 T cells were mixed with iTregs differentiated from the same patient at different ratio, and activated with αhCD3 for 5 days. […]

[3] = system: IL-23-induced IL-17 production in myelin specific CD4 T cells; assay: IL-23-induced IL-17 production in myelin-specific CD4 T cells (splenocytes of PLP-immunized SJL mice); format: cell-based; conditions: PLP 139-151 with IL-23 for 3 days, different concentrations
Description: Briefly, SJL mice were immunized with PLP 139-151. Splenocytes were isolated on day 20 after immunization and activated with PLP 139-151 with our without IL-23 for 3 days, in the presence of different concentrations of LLL12b or DMSO (vehicle control). […] Cells were gated on CD44+CD4+ T cells. Flow data are representative of three independent experiments. […] All error bars denote s.e.m. * * denotes p<0.01; *** denotes p<0.001; **** denotes p<0.0001.

[4] = of 22 treatment-naïve MS patients, compared to DMSO

SMILES | T cell encephalitogenicity in adoptive transfer (EAE model of MS) | iTreg development of CD4 T cells from MS patients ([1]; 0.125 μM, 22 treatment-naïve MS patients) | patient numbers with % Increase of iTregs 5-20% [1, 4] | patient numbers with % Increase of iTregs 20-40% [1, 4] | patient numbers with % Increase of iTregs <5% [1, 4] | patient numbers with % Increase of iTregs >40% [1, 4] | CD25+FoxP3+ iTregs in the CD4+CD45RA+ population ([1]; one MS patient, 72 h, iTreg differentiating condition, control group 40%) [%] | Treg mediated suppression on Teff cells (% suppression) [2] | IL-23-induced IL-17 production [3]
NS(=O)(=O)c1cccc2c1C(=O)c1cccc(O)c1C2=O [LLL12] | inhibits T cell encephalitogenicity |  |  |  |  |  |  |  | 
CN(C)C(=O)Oc1cccc2c1C(=O)c1cccc(S(N)(=O)=O)c1C2=O [LLL12b] |  | significantly promotes iTreg development | 13 | 3 | 5 | 1 | 59 | significantly increased | inhibition of IL-23-induced IL-17 production

Reference: US12594265B2, “Methods and compositions for inhibition of STAT3” (Ohio State Innovation Foundation, priority 2017, dated 2026)
